Reference: US11691949B2, “Quinoline sulfonamide compounds and their use as antibacterial agents” (OTAGO INNOVATION LIMITED, priority 2017, dated 2023)
Values after ≈ are worked out from the molar mass of the structure shown. Where two headings read alike, the source gives them in different places.

Assays:
Assay type in all cases: cell-based
[1] = test system: S. uberis ATCC 19436; test: MIC by broth microdilution, S. uberis; settings: Streptococcus uberis, read-out: S. uberis ATCC 19436 MIC
Procedure, shortened: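 This broth microdilution assay used S. uberis ATCC 19436 in Todd Hewitt Broth, with zinc sulphate heptahydrate added where required to a final 50 μM. Inhibitor concentration ranges came from two-fold serial dilutions in 96-well flat bottom plates at 200 μl. Approximately 5×10^5 cfu/mL cells were incubated for 24 h at 37° C. and 200 rpm. Wells were then read at OD600 on a Varioskan Flash reader.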

[2] = test system: E. coli ATCC 10596; test: MIC by broth microdilution, E. coli; settings: Escherichia coli, read-out: E. coli ATCC 10536 MIC
Procedure, shortened: (§1)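 Media: TSB or CAMHB for S. aureus, LB or CAMHB for E. coli, with zinc sulphate to 50 μM final where required. Cells at ~5×10^5 cfu/mL met two-fold compound series; growth was scored by OD600 after 24 h shaking at 37° C.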

[3] = test system: S. aureus ATCC 6538; test: MIC by broth microdilution, S. aureus; settings: Staphylococcus aureus, read-out: S. aureus ATCC 6538 MIC
Procedure, shortened: as §1

[4] = ATCC 10536 / ATCC 10596, No Zinc
[5] = ATCC 10536 / ATCC 10596, Zinc (50 μM)

Row | Structure (SMILES) | MIC ([1]; ATCC19436, No Zinc) [µg/mL] | MIC ([1]; ATCC19436, Zinc (50 μM)) [µg/mL] | MIC [2, 4] [µg/mL] | MIC [2, 5] [µg/mL] | MIC ([3]; ATCC6538, No Zinc) [µg/mL] | MIC ([3]; ATCC6538, Zinc (50 μM)) [µg/mL]
1 | CCCCNCc1ccc2cccc(NS(=O)(=O)c3ccc(C(F)(F)F)cc3)c2n1 [ZDR401, N-(2-((Butylamino)methyl)quinolin-8-yl)-4-(trifluoromethyl)benzenesulfonamide] | 16 (≈ 36.6 µM) | 0.125 (≈ 0.286 µM) | 64 (≈ 146 µM) | > 256 | 32 (≈ 73.1 µM) | 128 (≈ 293 µM)
2 | CCC(C)NCc1ccc2cccc(NS(=O)(=O)c3ccc(C(F)(F)F)cc3)c2n1 (stereo not drawn) [ZDR402, N-(2-((sec-Butylamino)methyl)quinolin-8-yl)-4-(trifluoromethyl)benzenesulfonamide] | 16 (≈ 36.6 µM) | 0.125 (≈ 0.286 µM) | 256 (≈ 585 µM) | > 256 | 32 (≈ 73.1 µM) | 128 (≈ 293 µM)
3 | CC(C)CNCc1ccc2cccc(NS(=O)(=O)c3ccc(C(F)(F)F)cc3)c2n1 [ZDR403, N-(2-((Iso-Butylamino)methyl)quinolin-8-yl)-4-(trifluoromethyl)benzenesulfonamide] | 16 (≈ 36.6 µM) | 0.125 (≈ 0.286 µM) | 64 (≈ 146 µM) | 256 (≈ 585 µM) | 32 (≈ 73.1 µM) | 128 (≈ 293 µM)
4 | O=S(=O)(Nc1cccc2ccc(CNC3CCCC3)nc12)c1ccc(C(F)(F)F)cc1 [ZDR404, N-(2-((Cyclopentylamino)methyl)quinolin-8-yl)-4-(trifluoromethyl)benzenesulfonamide] | 16 (≈ 35.6 µM) | 0.125 (≈ 0.278 µM) | 128 (≈ 285 µM) | > 256 | 32 (≈ 71.2 µM) | 256 (≈ 570 µM)
5 | O=S(=O)(Nc1cccc2ccc(CNC3CCCCC3)nc12)c1ccc(C(F)(F)F)cc1 [ZDR405, N-(2-((Cyclohexylamino)methyl)quinolin-8-yl)-4-(trifluoromethyl)benzenesulfonamide] | 16 (≈ 34.5 µM) | 0.125 (≈ 0.27 µM) | 128 (≈ 276 µM) | > 256 | 64 (≈ 138 µM) | 128 (≈ 276 µM)
6 | O=S(=O)(Nc1cccc2ccc(CNCC3CCCCC3)nc12)c1ccc(C(F)(F)F)cc1 [ZDR406, N-(2-(((Cyclohexylmethyl)amino)methyl)quinolin-8-yl)-4-(trifluoromethyl)benzenesulfonamide] | 16 (≈ 33.5 µM) | 0.125 (≈ 0.262 µM) | 64 (≈ 134 µM) | 256 (≈ 536 µM) | 32 (≈ 67 µM) | 128 (≈ 268 µM)
7 | O=S(=O)(Nc1cccc2ccc(CN3CCCC3)nc12)c1ccc(C(F)(F)F)cc1 [ZDR407, N-(2-(Pyrrolidin-1-ylmethyl)quinolin-8-yl)-4-(trifluoromethyl)benzenesulfonamide] | 128 (≈ 294 µM) | 0.125 (≈ 0.287 µM) | 256 (≈ 588 µM) | 256 (≈ 588 µM) | 64 (≈ 147 µM) | 256 (≈ 588 µM)
8 | O=S(=O)(Nc1cccc2ccc(CN3CCCCCC3)nc12)c1ccc(C(F)(F)F)cc1 [ZDR408, N-(2-(Azepan-1-ylmethyl)quinolin-8-yl)-4-(trifluoromethyl)benzenesulfonamide] | 32 (≈ 69 µM) | 0.125 (≈ 0.27 µM) | > 256 | 256 (≈ 552 µM) | 64 (≈ 138 µM) | 256 (≈ 552 µM)
9 | CCCN(CCC)Cc1ccc2cccc(NS(=O)(=O)c3ccc(C(F)(F)F)cc3)c2n1 [ZDR409, N-(2-((Dipropylamino)methyl)quinolin-8-yl)-4-(trifluoromethyl)benzenesulfonamide] | 256 (≈ 550 µM) | 0.125 (≈ 0.269 µM) | > 256 | > 256 | 64 (≈ 137 µM) | 256 (≈ 550 µM)
10 | Cc1cc(CS(=O)(=O)Nc2cccc3ccc(CN(C)C)nc23)no1 [ZDR501, N-(2-((Dimethylamino)methyl)quinolin-8-yl)-1-(5-methylisoxazol-3-yl)methanesulfonamide] | > 256 | 0.25 (≈ 0.694 µM) | > 256 | > 256 | 256 (≈ 710 µM) | > 256
11 | CN(C)Cc1ccc2cccc(NS(=O)(=O)C3CCOCC3)c2n1 [ZDR502, N-(2-((Dimethylamino)methyl)quinolin-8-yl)tetrahydro-2H-pyran-4-sulfonamide] | > 256 | 0.25 (≈ 0.715 µM) | > 256 | > 256 | > 256 | > 256
12 | CN(C)Cc1ccc2cccc(NS(=O)(=O)CC3CC3)c2n1 [ZDR503, 1-Cyclopropyl-N-(2-((dimethylamino)methyl)quinolin-8-yl)methanesulfonamide] | > 256 | 0.125 (≈ 0.391 µM) | > 256 | > 256 | > 256 | 256 (≈ 801 µM)
13 | CN(C)Cc1ccc2cccc(NS(=O)(=O)CC3CCOCC3)c2n1 [ZDR504, N-(2-((Dimethylamino)methyl)quinolin-8-yl)-1-(tetrahydro-2H-pyran-4-yl)methanesulfonamide] | > 256 | 0.5 (≈ 1.38 µM) | > 256 | > 256 | > 256 | 256 (≈ 704 µM)

Further lines, results first:

Row | MIC ([1]; ATCC19436, No Zinc) [µg/mL] | MIC ([1]; ATCC19436, Zinc (50 μM)) [µg/mL] | MIC [2, 4] [µg/mL] | MIC [2, 5] [µg/mL] | MIC ([3]; ATCC6538, No Zinc) [µg/mL] | MIC ([3]; ATCC6538, Zinc (50 μM)) [µg/mL] | Structure (SMILES)
14 | 64 (≈ 156 µM) | 0.0625 (≈ 0.152 µM) | > 256 | > 256 | 64 (≈ 156 µM) | 128 (≈ 312 µM) | CN(C)Cc1ccc2cccc(NS(=O)(=O)c3cccc(Cl)c3Cl)c2n1 [ZDR336, 2,3-Dichloro-N-(2-((dimethylamino)methyl)quinolin-8-yl)benzenesulfonamide]
15 | 256 (≈ 647 µM) | 0.0625 (≈ 0.158 µM) | > 256 | > 256 | > 256 | > 256 | CN(C)Cc1ccc2cccc(NS(=O)(=O)c3cc(F)c(F)cc3F)c2n1 [ZDR337, N-(2-((Dimethylamino)methyl)quinolin-8-yl)-2,4,5-trifluorobenzenesulfonamide]
16 | 128 (≈ 339 µM) | 0.0625 (≈ 0.166 µM) | > 256 | > 256 | > 256 | > 256 | CN(C)Cc1ccc2cccc(NS(=O)(=O)c3ccc(F)c(F)c3)c2n1 [ZDR338, N-(2-((Dimethylamino)methyl)quinolin-8-yl)-3,4-difluorobenzenesulfonamide]
17 | 256 (≈ 652 µM) | 2 (≈ 5.1 µM) | > 256 | > 256 | > 256 | > 256 | CN(C)Cc1ccc2cccc(NS(=O)(=O)c3cccc4cnccc34)c2n1 [ZDR339, N-(2-((Dimethylamino)methyl)quinolin-8-yl)isoquinoline-5-sulfonamide]
18 | 64 (≈ 163 µM) | 0.25 (≈ 0.637 µM) | > 256 | > 256 | > 256 | 32 (≈ 81.5 µM) | CN(C)Cc1ccc2cccc(NS(=O)(=O)c3cccc4cccnc34)c2n1 [ZDR340, N-(2-((Dimethylamino)methyl)quinolin-8-yl)quinoline-8-sulfonamide]
19 | > 256 | 0.5 (≈ 1.72 µM) | > 256 | > 256 | 256 (≈ 879 µM) | > 256 | C=CS(=O)(=O)Nc1cccc2ccc(CN(C)C)nc12 [ZDR500, N-(2-((Dimethylamino)methyl)quinolin-8-yl)ethenesulfonamide]
20 | > 256 | 0.25 (≈ 0.64 µM) | > 256 | > 256 | > 256 | 256 (≈ 655 µM) | CN(C)Cc1ccc2cccc(NS(=O)(=O)Cc3ccc(Cl)nc3)c2n1 [ZDR505, 1-(6-Chloropyridin-3-yl)-N-(2-((dimethylamino)methyl)quinolin-8-yl)methanesulfonamide]
21 | 256 (≈ 844 µM) | 2 (≈ 6.59 µM) | > 256 | > 256 | > 256 | > 256 | C#CCS(=O)(=O)Nc1cccc2ccc(CN(C)C)nc12 [ZDR506, N-(2-((Dimethylamino)methyl)quinolin-8-yl)prop-2-yne-1-sulfonamide]
